Reference: patent publication US9624200B2, “Therapeutic piperazines” (DART NEUROSCIENCE (CAYMAN) LTD., priority 2006, dated 2017)

system: PDE4 from human U-937 cells; assay: PDE4 Inhibition Assay; format: biochemical; conditions: 1 μM cAMP, [3H]-cAMP, read-out: Potency Class (Inhibitory Concentration) in the PDE4 assay
Experimental: PDE4 from human U-937 cells was used (see T. J. Torphy, et al., J. Pharmacol. Exp. Ther., 1992, 263, 1195-1205). Test compound at various concentration and/or vehicle was preincubated with 2 μg/ml enzyme in Tris-HCl buffer pH 7.5 for 15 minutes at 25° C. The reaction was initiated by addition of 1 1 μM cAMP and 0.01 1 μM [^3H]-cAMP for another 20 minute incubation period and terminated at 100° C. The resulting [^3H]-AMP was converted to [^3H]-adenosine by addition of snake venom nucleotidase and separated by AG1-X2 resin. An aliquot was removed and counted to determine the amount of [^3H]-adenosine formed. Results were converted to percent inhibition and IC so determined using XLfit from IDBS (ID Business Solutions Ltd., 2 Occam Court, Surrey Research Park, Guildford, Surrey, GU2 7QB UK).
Representative compounds of the present invention were tested and found to have significant PDE4 inhibition in this assay.

Row | SMILES | IC50 [nM]
1 | COc1ccc(N2CCN(C(=O)c3ccc(O)c(O)c3)[C@@H](Cc3ccccc3)C2)cc1OC1CCCC1 [Compound 286, (S)-(2-benzyl-4-(3-(cyclopentyloxy)-4-methoxyphenyl)piperazin-1-yl)(3,4-dihydroxyphenyl)methanone] | > 1000
2 | COc1ccc(N2CCN(C(=O)c3c[nH]c(=O)[nH]3)[C@@H](Cc3ccccc3)C2)cc1OC1CCCC1 [Compound 288, (S)-4-(2-benzyl-4-(3-(cyclopentyloxy)-4-methoxyphenyl)piperazine-1-carbonyl)-1H-imidazol-2(3H)-one] | 200 to 1000
3 | COc1ccc(N2CCN(C(=O)Cn3ccnc3C)[C@@H](Cc3ccccc3)C2)cc1OC1CCCC1 [Compound 289, (S)-1-(2-benzyl-4-(3-(cyclopentyloxy)-4-methoxyphenyl)piperazin-1-yl)-2-(2-methyl-1H-imidazol-1-yl)ethanone] | > 1000
4 | COc1ccc(N2CCN(C(=O)Cn3ccnc3)[C@@H](Cc3ccccc3)C2)cc1OC1CCCC1 [Compound 290, (S)-1-(2-benzyl-4-(3-(cyclopentyloxy)-4-methoxyphenyl)piperazin-1-yl)-2-(1H-imidazol-1-yl)ethanone] | > 1000
5 | COc1ccc(N2CCN(C(=O)Cc3cncs3)[C@@H](Cc3ccccc3)C2)cc1OC1CCCC1 [Compound 291, (S)-1-(2-benzyl-4-(3-(cyclopentyloxy)-4-methoxyphenyl)piperazin-1-yl)-2-(thiazol-5-yl)ethanone] | 200 to 1000
6 | COc1ccc(N2CCN(C(=O)[C@@H]3CNC(=O)N3)[C@@H](Cc3ccccc3)C2)cc1OC1CCCC1 [Compound 292, (S)-4-((S)-2-benzyl-4-(3-(cyclopentyloxy)-4-methoxyphenyl)piperazine-1-carbonyl)imidazolidin-2-one] | < 200
7 | COc1ccc(N2CCN(C(=O)Cc3n[nH]c(=O)[nH]3)[C@@H](Cc3ccccc3)C2)cc1OC1CCCC1 [Compound 293, (S)-3-(2-(2-benzyl-4-(3-(cyclopentyloxy)-4-methoxyphenyl)piperazin-1-yl)-2-oxoethyl)-1H-1,2,4-triazol-5(4H)-one] | 200 to 1000
8 | COc1ccc(N2CCN(C(=O)Cc3nn[nH]n3)[C@@H](Cc3ccccc3)C2)cc1OC1CCCC1 [Compound 294, (S)-1-(2-benzyl-4-(3-(cyclopentyloxy)-4-methoxyphenyl)piperazin-1-yl)-2-(2H-tetrazol-5-yl)ethanone] | < 200
9 | COc1ccc(N2CCN(C(=O)[C@@H]3CCC(=O)O3)[C@@H](Cc3ccccc3)C2)cc1OC1CCCC1 [Compound 295, (S)-5-((S)-2-benzyl-4-(3-(cyclopentyloxy)-4-methoxyphenyl)piperazine-1-carbonyl)dihydrofuran-2 (3H)-one] | > 1000
10 | COc1ccc(N2CCN(C(=O)[C@H]3CCC(=O)O3)[C@@H](Cc3ccccc3)C2)cc1OC1CCCC1 [Compound 296, (R)-5-((S)-2-benzyl-4-(3-(cyclopentyloxy)-4-methoxyphenyl)piperazine-1-carbonyl)dihydrofuran-2(3H)-one] | > 1000
11 | COc1ccc(N2CCN(C(=O)C3(O)CCC3)[C@@H](Cc3ccccc3)C2)cc1OC1CCCC1 [Compound 297, (S)-(2-benzyl-4-(3-(cyclopentyloxy)-4-methoxyphenyl)piperazin-1-yl)(1-hydroxycyclobutyl)methanone] | 200 to 1000
12 | COc1ccc(N2CCN(C(=O)Cc3sc(C)nc3C)[C@@H](Cc3ccccc3)C2)cc1OC1CCCC1 [Compound 298, (S)-1-(2-benzyl-4-(3-(cyclopentyloxy)-4-methoxyphenyl)piperazin-1-yl)-2-(2,4-dimethylthiazol-5-yl)ethanone] | > 1000
13 | COc1ccc(N2CCN(C(=O)C3CNC(=O)C3)[C@@H](Cc3ccccc3)C2)cc1OC1CCCC1 (stereo partly drawn) [Compound 299, 4-((S)-2-benzyl-4-(3-(cyclopentyloxy)-4-methoxyphenyl)piperazine-1-carbonyl)pyrrolidin-2-one] | 200 to 1000
